Test results as given in paper PMC11494505, “Asymmetric Monoreduction of α,β-Dicarbonyls to α-Hydroxy Carbonyls by Ene Reductases” (ACS Catalysis, 2024).

Assays:
[1] = tested on: T1, CC(=O)C(=O)c1ccccc1; assay: steady-state Michaelis-Menten kinetics; assay type: biochemical, Saccharomyces cerevisiae; settings: NADPH as cofactor
T1 construct: wild type, N-terminal His-tag (pET-28a(+)), E. coli BL21 Gold(DE3), IMAC, FMN-loaded

[2] = biological target: T2, OYE2 (Saccharomyces cerevisiae, UniProt Q03558); assay: bioconversion, GC; assay type: biochemical; settings: 10 mM substrate, 5 μM enzyme, 11 mM NADPH, 2% DMSO, pH 7.0, 30 °C, 6 h; product detected as 8c by GC
T2 construct: wild type, N-terminal His-tag (pET-28a(+)), E. coli BL21 Gold(DE3), IMAC, FMN-loaded
T2 sequence (Q03558 whole entry): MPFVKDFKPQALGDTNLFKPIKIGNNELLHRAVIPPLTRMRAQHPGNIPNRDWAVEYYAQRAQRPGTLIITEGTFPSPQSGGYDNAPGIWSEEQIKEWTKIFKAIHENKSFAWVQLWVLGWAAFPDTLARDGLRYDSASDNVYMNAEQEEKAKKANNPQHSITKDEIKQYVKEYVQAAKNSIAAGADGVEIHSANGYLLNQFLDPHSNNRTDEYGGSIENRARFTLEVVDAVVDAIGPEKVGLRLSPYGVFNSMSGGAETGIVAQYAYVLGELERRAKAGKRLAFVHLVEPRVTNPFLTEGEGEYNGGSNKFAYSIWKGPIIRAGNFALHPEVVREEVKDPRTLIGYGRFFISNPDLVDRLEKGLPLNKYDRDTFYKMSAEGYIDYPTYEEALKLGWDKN

[3] = biological target: T3, GluER (Gluconobacter oxydans, UniProt Q5FTL6); assay: bioconversion to 2-hydroxyhexan-3-one, chiral GC; assay type: biochemical; settings: 10 mM substrate, 5 μM enzyme, 1.1 eq. NADPH, 2% DMSO, pH 7.0, 30 °C, 6 h
T3 construct: gene GOX0502; wild type, N-terminal His-tag (pET-28a(+)), E. coli BL21 Gold(DE3), IMAC, FMN-loaded
T3 sequence (Q5FTL6 entry or part of it): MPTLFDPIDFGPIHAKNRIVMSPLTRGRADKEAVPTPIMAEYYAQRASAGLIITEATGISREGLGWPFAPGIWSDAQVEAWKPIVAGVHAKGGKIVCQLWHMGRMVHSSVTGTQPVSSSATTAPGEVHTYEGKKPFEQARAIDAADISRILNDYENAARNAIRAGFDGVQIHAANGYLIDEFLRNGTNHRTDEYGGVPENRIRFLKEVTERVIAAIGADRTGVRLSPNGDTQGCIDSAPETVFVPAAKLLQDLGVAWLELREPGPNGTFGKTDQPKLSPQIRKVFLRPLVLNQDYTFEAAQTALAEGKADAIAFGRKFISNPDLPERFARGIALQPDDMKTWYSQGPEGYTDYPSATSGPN

[4] = biological target: T4, EPB1 (Candida albicans, UniProt A0A1D8PPK1); assay: bioconversion to 7b, HPLC; assay type: biochemical; settings: 10 mM substrate, 5 μM enzyme, 11 mM NADPH, 2% DMSO, pH 7.0, 30 °C, 6 h
T4 construct: gene EBP1; wild type, N-terminal His-tag (pET-28a(+)), E. coli BL21 Gold(DE3); spelled EBP1 in Methods
T4 sequence (A0A1D8PPK1 whole entry): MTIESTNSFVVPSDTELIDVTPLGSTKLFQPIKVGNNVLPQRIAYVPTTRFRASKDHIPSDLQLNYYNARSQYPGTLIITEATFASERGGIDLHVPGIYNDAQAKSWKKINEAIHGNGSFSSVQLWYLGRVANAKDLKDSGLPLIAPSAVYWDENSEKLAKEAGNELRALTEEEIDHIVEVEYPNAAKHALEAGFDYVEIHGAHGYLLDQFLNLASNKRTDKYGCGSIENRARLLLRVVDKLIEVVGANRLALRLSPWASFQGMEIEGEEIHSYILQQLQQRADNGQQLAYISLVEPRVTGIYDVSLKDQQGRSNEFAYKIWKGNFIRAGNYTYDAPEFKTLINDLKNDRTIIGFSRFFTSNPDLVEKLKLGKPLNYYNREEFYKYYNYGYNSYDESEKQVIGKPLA

[5] = biological target: T2, OYE2; assay: bioconversion to 7b, HPLC; assay type: biochemical; settings: 10 mM substrate, 5 μM enzyme, 11 mM NADPH, 2% DMSO, pH 7.0, 30 °C, 6 h
[6] = biological target: T3, GluER; assay: bioconversion to 7b and 7c, HPLC / GC; assay type: biochemical; settings: 10 mM substrate, 5 μM enzyme, 1.1 eq. NADPH, 2% DMSO, pH 7.0, 30 °C, 6 h
[7] = biological target: T5, XenA (Pseudomonas putida, UniProt Q9R9V9); assay: bioconversion to 7b, HPLC; assay type: biochemical; settings: 10 mM substrate, 5 μM enzyme, 11 mM NADPH, 2% DMSO, pH 7.0, 30 °C, 6 h
T5 construct: recombinant in-house enzyme; details in supplement
T5 sequence (Q9R9V9 entry or part of it): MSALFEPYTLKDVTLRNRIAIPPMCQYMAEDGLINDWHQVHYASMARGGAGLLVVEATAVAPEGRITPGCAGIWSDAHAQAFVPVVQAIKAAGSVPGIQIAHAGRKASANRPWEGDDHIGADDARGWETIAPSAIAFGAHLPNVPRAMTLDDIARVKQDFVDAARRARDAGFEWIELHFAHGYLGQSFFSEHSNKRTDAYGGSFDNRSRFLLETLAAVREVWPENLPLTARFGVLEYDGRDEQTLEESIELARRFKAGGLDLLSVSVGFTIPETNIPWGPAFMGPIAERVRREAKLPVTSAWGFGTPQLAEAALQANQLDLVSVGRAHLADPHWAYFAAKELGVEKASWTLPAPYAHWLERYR

[8] = biological target: T6, TOYE (Thermoanaerobacter pseudethanolicus, UniProt B0KAH1); assay: bioconversion to 7b, HPLC; assay type: biochemical; settings: 10 mM substrate, 5 μM enzyme, 11 mM NADPH, 2% DMSO, pH 7.0, 30 °C, 6 h
T6 construct: gene Teth39_0012; recombinant in-house enzyme; details in supplement
T6 sequence (B0KAH1 entry or part of it): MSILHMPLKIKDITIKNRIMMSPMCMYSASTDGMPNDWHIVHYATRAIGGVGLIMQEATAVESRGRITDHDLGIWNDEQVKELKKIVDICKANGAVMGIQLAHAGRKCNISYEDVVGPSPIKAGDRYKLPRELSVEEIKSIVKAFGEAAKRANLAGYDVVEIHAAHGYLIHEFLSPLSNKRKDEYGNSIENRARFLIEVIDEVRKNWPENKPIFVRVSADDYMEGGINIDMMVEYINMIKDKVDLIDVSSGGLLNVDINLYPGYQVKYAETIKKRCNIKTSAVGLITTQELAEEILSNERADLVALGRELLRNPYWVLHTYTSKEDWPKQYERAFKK

[9] = biological target: T7, PETNR (Enterobacter cloacae, UniProt P71278); assay: bioconversion to 7b, HPLC; assay type: biochemical; settings: 10 mM substrate, 5 μM enzyme, 11 mM NADPH, 2% DMSO, pH 7.0, 30 °C, 6 h
T7 construct: gene onr; recombinant in-house enzyme; details in supplement
T7 sequence (P71278 entry or part of it): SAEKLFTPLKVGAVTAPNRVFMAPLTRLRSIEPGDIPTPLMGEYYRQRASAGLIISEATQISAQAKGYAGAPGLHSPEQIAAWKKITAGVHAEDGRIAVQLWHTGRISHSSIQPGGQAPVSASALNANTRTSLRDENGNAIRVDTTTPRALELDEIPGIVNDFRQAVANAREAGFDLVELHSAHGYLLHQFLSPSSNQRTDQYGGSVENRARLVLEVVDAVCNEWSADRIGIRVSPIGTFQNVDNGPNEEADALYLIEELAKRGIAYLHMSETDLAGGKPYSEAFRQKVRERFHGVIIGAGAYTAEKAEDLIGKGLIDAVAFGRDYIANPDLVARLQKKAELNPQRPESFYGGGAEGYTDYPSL

[10] = biological target: T8, YqjM (Bacillus subtilis, UniProt P54550); assay: bioconversion to 7b, HPLC; assay type: biochemical; settings: 10 mM substrate, 5 μM enzyme, 11 mM NADPH, 2% DMSO, pH 7.0, 30 °C, 6 h
T8 construct: gene namA; recombinant, purified; details in supplement
T8 sequence (P54550 2-338): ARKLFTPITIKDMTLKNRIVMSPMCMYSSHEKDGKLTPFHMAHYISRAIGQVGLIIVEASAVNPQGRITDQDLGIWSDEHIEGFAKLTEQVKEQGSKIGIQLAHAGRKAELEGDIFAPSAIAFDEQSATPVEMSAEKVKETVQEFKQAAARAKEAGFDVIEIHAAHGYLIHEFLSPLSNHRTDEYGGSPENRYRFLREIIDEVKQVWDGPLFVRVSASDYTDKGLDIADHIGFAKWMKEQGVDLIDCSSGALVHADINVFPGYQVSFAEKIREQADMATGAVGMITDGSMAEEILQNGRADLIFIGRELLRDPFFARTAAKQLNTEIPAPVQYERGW

[11] = biological target: T9, TsOYE (Thermus scotoductus, UniProt B0JDW3); assay: bioconversion to 7b, HPLC; assay type: biochemical; settings: 10 mM substrate, 5 μM enzyme, 11 mM NADPH, 2% DMSO, pH 7.0, 30 °C, 6 h
T9 construct: gene chrR; wild type, pET-28a(+), E. coli BL21 Gold(DE3), N-terminal His-tag, heat purified (70 °C)

OYE3 (Saccharomyces cerevisiae S288C)
Km [1]: 2460 ± 250 µM
kcat [1]: 0.71 ± 0.03 s⁻¹

O=CC(=O)c1ccccc1 [8a, phenylglyoxal]
bioconversion, GC [2]: could confirm excellent conversions with 8a

CCCC(=O)C(C)=O [2a, 2,3-hexanedione]
% conversion [3]: 19%

CC(=O)C(=O)c1ccccc1 [7a, 1-phenyl-1,2-propanedione]
bioconversion to 7b, HPLC [4]: class II (OYE3, OYE2, EPB1)
bioconversion to 7b, HPLC [5]: Nine of the enzymes produced the single product 7b
bioconversion to 7b and 7c, HPLC / GC [6]: GluER was the most versatile ERED, able to reduce 1a–5a, 7a, and 8a
bioconversion to 7b, HPLC [7]: class III (TsOYE, XenA, TOYE, YqjM)
bioconversion to 7b, HPLC [8]: class III (TsOYE, XenA, TOYE, YqjM)
bioconversion to 7b, HPLC [9]: Nine of the enzymes produced the single product 7b; class I (PETNR, NCR)
bioconversion to 7b, HPLC [10]: class III (TsOYE, XenA, TOYE, YqjM)
bioconversion to 7b, HPLC [11]: class III (TsOYE, XenA, TOYE, YqjM)
